The text below walks through data of ChEMBL document CHEMBL1137360, “Structure-activity relationships of a novel series of urotensin II analogues: identification of a urotensin II antagonist” (J Med Chem, 2006).

Active and inactive are the calls of the source. The rule behind the calls is not given here. Positions of bridges follow the written chain, without caps; N, C: chain ends. Non-standard residues stand in square brackets, D forms with d. Residues, ends and D or L forms follow the SMILES beside them. Phe(4-tBu) = CC(C)(C)c1ccc(C[C@H](N)C(=O)O)cc1; Oic = O=C(O)[C@@H]1C[C@@H]2CCCC[C@@H]2N1; Phe(4-NH2) = Nc1ccc(C[C@H](N)C(=O)O)cc1; Bta = N[C@@H](Cc1csc2ccccc12)C(=O)O; 2Thi = N[C@@H](Cc1cccs1)C(=O)O; Aib = CC(C)(N)C(=O)O

In assay [1] the target is T1, Urotensin-2 receptor (Homo sapiens, UniProt Q9UKP6).
T1 sequence (Q9UKP6 whole entry): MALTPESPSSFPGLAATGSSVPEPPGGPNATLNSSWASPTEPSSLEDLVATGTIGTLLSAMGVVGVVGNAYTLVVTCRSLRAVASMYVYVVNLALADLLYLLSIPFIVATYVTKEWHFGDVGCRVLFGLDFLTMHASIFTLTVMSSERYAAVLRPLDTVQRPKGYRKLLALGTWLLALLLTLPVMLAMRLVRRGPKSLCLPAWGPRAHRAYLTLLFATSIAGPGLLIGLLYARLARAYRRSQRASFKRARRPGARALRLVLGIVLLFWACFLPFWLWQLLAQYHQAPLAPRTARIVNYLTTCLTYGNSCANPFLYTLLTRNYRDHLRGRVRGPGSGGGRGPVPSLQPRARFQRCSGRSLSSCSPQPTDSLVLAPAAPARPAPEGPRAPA
Put plainly: Displacement of [125I]human urotensin-2 from human GPR14 transfected in CHO cells. The class given is cell-based. The following applies: for Log Ki: cho. (In general: In a radioligand displacement assay an active substance lowers the binding of a labelled ligand.)

Assay [2] deals with T2, Urotensin-2 receptor (Rattus norvegicus) (UniProt P49684).
T2 sequence (whole entry): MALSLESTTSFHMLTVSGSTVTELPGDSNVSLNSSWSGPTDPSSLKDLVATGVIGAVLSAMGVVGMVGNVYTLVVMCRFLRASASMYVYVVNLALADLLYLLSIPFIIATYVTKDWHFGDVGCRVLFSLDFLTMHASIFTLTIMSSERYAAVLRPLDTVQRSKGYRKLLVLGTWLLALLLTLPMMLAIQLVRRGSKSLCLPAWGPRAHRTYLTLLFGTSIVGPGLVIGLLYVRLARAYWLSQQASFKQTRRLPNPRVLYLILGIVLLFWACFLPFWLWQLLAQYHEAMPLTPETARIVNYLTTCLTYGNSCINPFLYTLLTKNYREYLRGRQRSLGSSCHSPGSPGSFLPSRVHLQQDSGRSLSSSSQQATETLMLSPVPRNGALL
Put plainly: Antagonist activity against 1 uM human urotensin-2-induced contraction of rat aortic ring. The class given is functional, tissue-based. The following applies: Aorta.

For assay [3], the species on record is Rattus norvegicus. Put plainly: Agonist activity in rat aortic ring contraction assay. The class given is functional. Conditions: Aorta.
For assay [4], the species on record is Rattus norvegicus. Put plainly: Agonist activity in rat aortic ring contraction assay relative to 1 uM phenylephrine. In kind it is functional.

One may read the Ki as a dissociation constant, usually derived from enzyme kinetics or from competition with a known ligand. Low values mean higher affinity, high ones lower affinity. The term EC50 denotes the concentration at which the effect is half-maximal. A high value points to weaker potency. Compound `CC(C)[C@H](NC(=O)[C@@H]1CSSC[C@H](NC(=O)[C@@H](N)CC(=O)O)C(=O)N[C@H](CC2CCCCC2)C(=O)N[C@@H](Cc2c[nH]c3ccccc23)C(=O)N[C@@H](CCCCN)C(=O)N[C@@H](Cc2ccc(O)cc2)C(=O)N1)C(=O)O` showed an inhibition constant (Ki) in assay [1] of over 10000 nM. Besides, the result in assay [2] and in assay [4] (Aorta) was inactive. For the same compound, the EC50 in assay [3] was over 10000 nM.

On to `CC(C)[C@H](NC(=O)[C@@H]1CSSC[C@H](NC(=O)[C@@H](N)CC(=O)O)C(=O)N[C@@H](Cc2ccc(C(C)(C)C)cc2)C(=O)N[C@@H](Cc2c[nH]c3ccccc23)C(=O)N[C@@H](CCCCN)C(=O)N[C@@H](Cc2ccc(O)cc2)C(=O)N1)C(=O)O` (H-DC[Phe(4-tBu)]WKYCV-OH; disulfide 2-7) [listing 1 of 2 here], for which the “Log Ki” value in assay [1] is reported as -7.63. Moreover, in assay [3], a half-maximal response (EC50) required 4.07 nM.

The compound `CC(C)[C@H](NC(=O)[C@@H]1CSSC[C@H](NC(=O)[C@@H](N)CC(=O)O)C(=O)N[C@@H](Cc2ccccc2)C(=O)N[C@@H](Cc2c[nH]c3ccccc23)C(=O)N[C@@H](CCCCN)C(=O)N[C@@H](Cc2ccc(N)cc2)C(=O)N1)C(=O)O` (H-DCFWK[Phe(4-NH2)]CV-OH; disulfide 2-7) had a Ki in assay [1] of 10 nM. The result in assay [2] was inactive. In addition, in assay [3], the EC50 was 427 nM. This compound also returned an Activity in assay [4] of 97.7%.

Regarding `CC(C)[C@H](NC(=O)[C@@H]1CSSC[C@H](NC(=O)[C@@H](N)CC(=O)O)C(=O)N[C@@H](Cc2cccs2)C(=O)N[C@@H](Cc2c[nH]c3ccccc23)C(=O)N[C@@H](CCCCN)C(=O)N[C@@H](Cc2ccc(O)cc2)C(=O)N1)C(=O)O` (H-DC[2Thi]WKYCV-OH; disulfide 2-7) [listing 1 of 2 here], the Activity in assay [4] turned out to be 94%.

Consider `CC(C)[C@H](NC(=O)[C@@H]1CSSC[C@H](NC(=O)C(C)(C)N)C(=O)N[C@@H](Cc2ccccc2)C(=O)N[C@@H](Cc2c[nH]c3ccccc23)C(=O)N[C@@H](CCCCN)C(=O)N[C@@H](Cc2ccc(O)cc2)C(=O)N1)C(=O)O` (H-[Aib]CFWKYCV-OH; disulfide 2-7), for which, in assay [1], the Ki is 2.24 nM. The result in assay [2] was inactive. Moreover, the 50% effective concentration (EC50) in assay [3] was 5.62 nM. Besides, the Activity in assay [4] stood at 83.9%.

As to `CC(C)[C@H](NC(=O)[C@@H]1CSSC[C@H](NC(=O)[C@@H](N)CC(=O)O)C(=O)N[C@@H](Cc2cccs2)C(=O)N[C@@H](Cc2c[nH]c3ccccc23)C(=O)N[C@@H](CCCCN)C(=O)N[C@@H](Cc2ccc(O)cc2)C(=O)N1)C(=O)O` (H-DC[2Thi]WKYCV-OH; disulfide 2-7) [listing 2 of 2 here], the “Log Ki” value in assay [1] was -8.54. Moreover, in assay [3], the half-maximal effective concentration (EC50) was 8.91 nM.

Turning to `CC(C)[C@H](NC(=O)[C@@H]1CSSC[C@H](NC(=O)[C@@H](N)CC(=O)O)C(=O)N[C@@H](Cc2csc3ccccc23)C(=O)N[C@@H](Cc2c[nH]c3ccccc23)C(=O)N[C@@H](CCCCN)C(=O)N[C@@H](Cc2ccc(O)cc2)C(=O)N1)C(=O)O` (H-DC[Bta]WKYCV-OH; disulfide 2-7) [listing 1 of 2 here], the “Log Ki” value in assay [1] is -8.95. Moreover, a half-maximal response in assay [3] (EC50) required 288 nM.

As to `CC(C)[C@H](NC(=O)[C@@H]1CSSC[C@H](NC(=O)[C@@H](N)CC(=O)O)C(=O)N[C@@H](Cc2csc3ccccc23)C(=O)N[C@@H](Cc2c[nH]c3ccccc23)C(=O)N[C@@H](CCCCN)C(=O)N[C@@H](Cc2ccc(O)cc2)C(=O)N1)C(=O)O` (H-DC[Bta]WKYCV-OH; disulfide 2-7) [listing 2 of 2 here], the Activity in assay [4] was found to be 73.8%.

Turning to `CC(C)[C@H](NC(=O)[C@@H]1CSSC[C@H](NC(=O)[C@@H](N)CC(=O)O)C(=O)N2[C@@H](C[C@@H]3CCCC[C@@H]32)C(=O)N[C@@H](Cc2c[nH]c3ccccc23)C(=O)N[C@@H](CCCCN)C(=O)N[C@@H](Cc2ccc(O)cc2)C(=O)N1)C(=O)O` (H-DC[Oic]WKYCV-OH; disulfide 2-7), the “Log Ki” value in assay [1] is under -5. Also, in assay [3], the EC50 is over 10000 nM.

For the compound `CC(C)[C@H](NC(=O)[C@@H]1CSSC[C@H](NC(=O)[C@@H](N)CC(=O)O)C(=O)N[C@@H](Cc2ccc(C(C)(C)C)cc2)C(=O)N[C@@H](Cc2c[nH]c3ccccc23)C(=O)N[C@@H](CCCCN)C(=O)N[C@@H](Cc2ccc(O)cc2)C(=O)N1)C(=O)O` (H-DC[Phe(4-tBu)]WKYCV-OH; disulfide 2-7) [listing 2 of 2 here], in assay [4], the Activity was 76.7%.
